Test results published in US20250346601A1, “HETEROCYCLIC COMPOUNDS FOR THE PREVENTION AND THERAPY OF CIRCADIAN RHYTHM DISORDERS” (UNIVERZITA PALACKEHO V OLOMOUCI, priority 2022, published 2025).
Where “and” joins values, the source holds several entries; their conditions need not be identical. Equal entries are not always repeated.

Key:
[1] = system: U2OS line transduced with the Bmal 1-Luc reporter; experiment: Period of the circadian rhythm in U2OS cells with Bmal1-Luc reporter (luminescence, cosinor analysis); assay type: cell-based, Human; conditions: U2OS, DMSO control = 1.00
Method: Human osteosarcoma U2OS cells were grown in standard DMEM medium with 10% fetal bovine serum. U2OS cells were transduced with lentiviral particles containing a Bmall-Luc fusion reporter and selected under Blasticidin. The cell line was clonally expanded and a single monoclonal cell line was used for further experiments. Cells were cultured in a 384-well plate in growth medium to 90+% confluence. Test compound or vehicle (DMSO) was applied to recording medium with 100 U/ml penicillin, 100 ug/ml streptomycin, 1x GlutaMAX, 10% fetal bovine serum, and 0.1 mM Luciferin-EF. Luminescence was recorded every hour for the next 144 hours. Circadian rhythm analysis was performed using cosinor analysis.
The length of the period was expressed relative to the period of cells affected only by DMSO vehicle (their period is therefore 1.00). […] The overall effect on circadian oscillations unequivocally proves that the compounds of formula I can be also used to temporally modulate the concentration and activity of not only BMAL1, but also other components of the oscillator including the critical components PER2, CRY and CLOCK in time, as these are an essential part of the mechanism generating the rhythmic expression of the luminescent reporter used. The concentration and level of other proteins, whose rhythmic expression is controlled by an oscillator in the brain and peripheral tissues (so-called clock-controlled genes), are also necessarily affected. The influence of the compounds of formula I on the activity of oscillator components and subordinate genes also means influencing the physiological processes of the cell controlled by these genes and proteins. N^6-furfuryladenine was used as a reference compound. […] The ability to shift the phase of the circadian cycle can be seen in FIG. 2.

[2] = system: NIH3T3 line transfected with the Per2-Luc reporter; experiment: Period of the circadian rhythm in NIH3T3 fibroblasts with Per2-Luc reporter (luminescence, cosinor analysis); assay type: cell-based, mouse; conditions: NIH3T3, DMSO control = 1.00
Method: NIH3T3 mouse embryonic fibroblasts were grown in standard DMEM with 10% fetal bovine serum. NIH3T3 cells were transfected with 1 μg of Per2-Luc reporter using GeneJuice and selected under hygromycin. The cell line was clonally expanded and a single monoclonal cell line was used for further experiments. Cells were cultured in a 96-well plate in growth medium to 90+% confluence. Test compound or vehicle (DMSO) was applied to recording medium with 100 U/ml penicillin, 100 μg/ml streptomycin, 1x GlutaMAX, 10% fetal calf serum and 0.1 mM Luciferin-EF (Promega Madison, WI, USA). Luminescence was recorded every hour for the next 144 hours. Circadian rhythm analysis was performed using cosinor analysis. Period length was expressed relative to the period of cells affected only by DMSO vehicle (their period length is therefore 1.00).

With `COCCCn1cnc2c(NCc3ccco3)ncnc21` [N-(furan-2-ylmethyl)-9-(3-methoxypropyl)-9H-purin-6-amine, reference compound] the “Period length ± standard error of the mean (expressed relative to control) at the indicated concentration” value ([1]; 50 μM) was 50 μM: 0.99 ± 0.01 and the “Period length ± standard error of the mean (expressed relative to the control) at the indicated concentration” value ([2]; 50 μM) was 50 μM: 0.93 ± 0.
`CNc1nc(NCc2ccco2)c2ncn(C3CCOCC3)c2n1` [Compound 52] was tested, and the “Period length ± standard error of the mean (expressed relative to control) at the indicated concentration” value ([1]; 20 μM) was 20 μM: 1.08 ± 0.01.
For `CCCNc1nc(NCc2ccco2)c2ncn(C3CCCCO3)c2n1` (stereo not drawn) [Compound 35], the “Period length ± standard error of the mean (expressed relative to control) at the indicated concentration” value ([1]; 10 μM) was 10 μM: 1.05 ± 0.01 and the “Period length ± standard error of the mean (expressed relative to the control) at the indicated concentration” value ([2]; 50 μM) was 50 μM: 1.38 ± 0.09.
With `Clc1nc(NCc2ccco2)c2[nH]cnc2n1` [2-chloro-N^6-furfuryladenine, reference compound] the “Period length ± standard error of the mean (expressed relative to control) at the indicated concentration” value ([1]; 20 μM) was 20 μM: 1.00 ± 0.03.
For `NCCNc1nc(NCc2ccco2)c2ncn(C3CCCCO3)c2n1` (stereo not drawn) [Compound 41], the “Period length ± standard error of the mean (expressed relative to control) at the indicated concentration” value ([1]; 1 μM) was 1.03 ± 0.01, the “Period length ± standard error of the mean (expressed relative to control) at the indicated concentration” value ([1]; 5 μM) was 1.07 ± 0 and the “Period length ± standard error of the mean (expressed relative to control) at the indicated concentration” value ([1]; 20 μM) was 1.32 ± 0.01.
For `CN(C)c1nc(NCc2ccco2)c2ncn(C3CCCCCO3)c2n1` (stereo not drawn) [Compound 61], the “Period length ± standard error of the mean (expressed relative to control) at the indicated concentration” value ([1]; 10 μM) was 1.04 ± 0.01 and the “Period length ± standard error of the mean (expressed relative to control) at the indicated concentration” value ([1]; 20 μM) was 1.15 ± 0.02.
In the case of `CNc1nc(NCc2ccco2)c2ncn(C3CCOC3)c2n1` (stereo not drawn) [Compound 25], the “Period length ± standard error of the mean (expressed relative to control) at the indicated concentration” value ([1]; 20 μM) is reported as 20 μM: 1.06 ± 0.01.
In the case of `Clc1nc(NCc2ccco2)c2ncn(C3CCOC3)c2n1` (stereo not drawn) [Compound 8], the “Period length ± standard error of the mean (expressed relative to control) at the indicated concentration” value ([1]; 10 μM) is reported as 1.04 ± 0.01 and the “Period length ± standard error of the mean (expressed relative to control) at the indicated concentration” value ([1]; 20 μM) is reported as 1.22 ± 0.
`OCCNc1nc(NCc2ccco2)c2ncn(C3CCOC3)c2n1` (stereo not drawn) [Compound 30] was tested, and the “Period length ± standard error of the mean (expressed relative to control) at the indicated concentration” value ([1]; 20 μM) was 20 μM: 1.05 ± 0.
`CC(C)Oc1nc(NCc2ccco2)c2ncn(C3CCCC3)c2n1` [Compound 21] was tested, and the “Period length ± standard error of the mean (expressed relative to control) at the indicated concentration” value ([1]; 20 μM) was 20 μM: 1.26 ± 0.06.
For `Cc1ccc(CNc2ncnc3nc[nH]c23)o1` [N^6-(5-methylfurfuryl)adenine, reference compound], the “Period length ± standard error of the mean (expressed relative to control) at the indicated concentration” value ([1]; 50 μM) was 50 μM: 1.01 ± 0.02.
In the case of `CN(C)CCNc1nc(NCc2ccco2)c2ncn(C3CCOC3)c2n1` (stereo not drawn) [Compound 28], the “Period length ± standard error of the mean (expressed relative to control) at the indicated concentration” value ([1]; 20 μM) is reported as 20 μM: 1.16 ± 0.
In the case of `OCCNc1nc(NCc2ccco2)c2ncn(C3CCCC3)c2n1` [Compound 19], the “Period length ± standard error of the mean (expressed relative to control) at the indicated concentration” value ([1]; 1 μM) is reported as 1.07 ± 0.01 and the “Period length ± standard error of the mean (expressed relative to control) at the indicated concentration” value ([1]; 4 μM) is reported as 1.21 ± 0.01.
`CN(CCN)c1nc(NCc2ccco2)c2ncn(C3CCCCO3)c2n1` (stereo not drawn) [Compound 43] was tested, and the “Period length ± standard error of the mean (expressed relative to control) at the indicated concentration” value ([1]; 1 μM) was 1 μM: 1.08 ± 0.01.
`Cc1ccc(CNc2nc(N(C)C)nc3c2ncn3C2CCCCO2)o1` (stereo not drawn) [Compound 51] was tested, and the “Period length ± standard error of the mean (expressed relative to the control) at the indicated concentration” value ([2]; 0.83 μM) was 1.05 ± 0.02, the “Period length ± standard error of the mean (expressed relative to the control) at the indicated concentration” value ([2]; 10 μM) was 1.08 and the “Period length ± standard error of the mean (expressed relative to the control) at the indicated concentration” value ([2]; 50 μM) was 0.02; 50 μM: 1.74 ± 0.2.
In the case of `c1coc(CNc2nc(N3CCOCC3)nc3c2ncn3C2CCCCO2)c1` (stereo not drawn) [Compound 47], the “Period length ± standard error of the mean (expressed relative to control) at the indicated concentration” value ([1]; 5 μM) is reported as 1.08 ± 0.01 and the “Period length ± standard error of the mean (expressed relative to control) at the indicated concentration” value ([1]; 20 μM) is reported as 1.47 ± 0.03.
In the case of `Clc1nc(NCc2ccco2)c2ncn(C3CCCO3)c2n1` (stereo not drawn) [Compound 7], the “Period length ± standard error of the mean (expressed relative to control) at the indicated concentration” value ([1]; 10 μM) is reported as 10 μM: 1.13 ± 0.02.
With `c1coc(CNc2nc(N3CCOCC3)nc3c2ncn3C2CCOC2)c1` (stereo not drawn) [Compound 31] the “Period length ± standard error of the mean (expressed relative to control) at the indicated concentration” value ([1]; 20 μM) was 20 μM: 1.13 ± 0.01.
In the case of `c1coc(CNc2nc(N3CCOCC3)nc3c2ncn3C2CCOCC2)c1` [Compound 58], the “Period length ± standard error of the mean (expressed relative to control) at the indicated concentration” value ([1]; 20 μM) is reported as 20 μM: 1.42 ± 0.04.
In the case of `CN(C)c1nc(NCc2ccco2)c2ncn(C3CCOCC3)c2n1` [Compound 53], the “Period length ± standard error of the mean (expressed relative to control) at the indicated concentration” value ([1]; 20 μM) is reported as 20 μM: 1.22 ± 0.01.
For `CN(C)CCNc1nc(NCc2ccco2)c2ncn(C3CCOCC3)c2n1` [Compound 55, N^2-(2-(dimethylamino)ethyl)-N^6-(furan-2-ylmethyl)-9-(tetrahydro-2H-pyran-4-yl)-9H-purine-2,6-diamine], the “Period length ± standard error of the mean (expressed relative to control) at the indicated concentration” value ([1]; 4 μM) was 4 μM: 1.16 ± 0.01.
In the case of `c1coc(CNc2ncnc3c2ncn3C2CCCO2)c1` (stereo not drawn) [Compound 2], the “Period length ± standard error of the mean (expressed relative to control) at the indicated concentration” value ([1]; 10 μM) is reported as 10 μM: 1.05 ± 0.01.
In the case of `Nc1ncnc2c1ncn2C1CCCO1` (stereo not drawn) [9-(tetrahydrofuran-2-yl)-9H-purin-6-amine, reference compound], the “Period length ± standard error of the mean (expressed relative to control) at the indicated concentration” value ([1]; 20 μM) is reported as 20 μM: 0.98 ± 0.02.
In the case of `c1coc(CNc2ncnc3c2ncn3C2CCOCC2)c1` [Compound 5], the “Period length ± standard error of the mean (expressed relative to control) at the indicated concentration” value ([1]; 10 μM) is reported as 10 μM: 1.05 ± 0.01.
`c1coc(CNc2nc(NC3CCCC3)nc3c2ncn3C2CCCCO2)c1` (stereo not drawn) [Compound 39] was tested, and the “Period length ± standard error of the mean (expressed relative to control) at the indicated concentration” value ([1]; 20 μM) was 20 μM: 1.05 ± 0.01.
For `CN(CCN)c1nc(NCc2ccco2)c2ncn(C3CCOCC3)c2n1` [Compound 54], the “Period length ± standard error of the mean (expressed relative to control) at the indicated concentration” value ([1]; 5 μM) was 5 μM: 1.14 ± 0.02.
`CC(C)Oc1nc(NCc2ccco2)c2ncn(C3CCOC3)c2n1` (stereo not drawn) [Compound 32] was tested, and the “Period length ± standard error of the mean (expressed relative to control) at the indicated concentration” value ([1]; 20 μM) was 20 μM: 1.09 ± 0.
With `NCCNc1nc(NCc2ccco2)c2ncn(C3CCOC3)c2n1` (stereo not drawn) [Compound 29] the “Period length ± standard error of the mean (expressed relative to control) at the indicated concentration” value ([1]; 20 μM) was 20 μM: 1.09 ± 0.
With `c1coc(CNc2nc(N3CCCC3)nc3c2ncn3C2CCCCO2)c1` (stereo not drawn) [Compound 40] the “Period length ± standard error of the mean (expressed relative to control) at the indicated concentration” value ([1]; 10 μM) was 10 μM: 1.04 ± 0.
In the case of `OCCNc1nc(NCc2ccco2)c2ncn(C3CCOCC3)c2n1` [Compound 57], the “Period length ± standard error of the mean (expressed relative to control) at the indicated concentration” value ([1]; 20 μM) is reported as 20 μM: 1.16 ± 0.01.
In the case of `Clc1nc(NCc2ccco2)c2ncn(C3CCCCO3)c2n1` (stereo not drawn) [Compound 9], the “Period length ± standard error of the mean (expressed relative to control) at the indicated concentration” value ([1]; 10 μM) is reported as 1.09 ± 0.01 and the “Period length ± standard error of the mean (expressed relative to control) at the indicated concentration” value ([1]; 20 μM) is reported as 1.11 ± 0.01.
`CC(C)Oc1nc(NCc2ccco2)c2ncn(C3CCCCO3)c2n1` (stereo not drawn) [Compound 49, N-(furan-2-ylmethyl)-2-isopropoxy-9-(tetrahydro-2H-pyran-2-yl)-9H-purin-6-amine] was tested, and the “Period length ± standard error of the mean (expressed relative to control) at the indicated concentration” value ([1]; 20 μM) was 20 μM: 1.14 ± 0.01.
With `CN(CCN)c1nc(NCc2ccco2)c2ncn(C3CCOC3)c2n1` (stereo not drawn) [Compound 27] the “Period length ± standard error of the mean (expressed relative to control) at the indicated concentration” value ([1]; 20 μM) was 20 μM: 1.25 ± 0.01.
For `CC(C)Oc1nc(NCc2ccco2)c2ncn(C3CCOCC3)c2n1` [Compound 59], the “Period length ± standard error of the mean (expressed relative to control) at the indicated concentration” value ([1]; 20 μM) was 1.2 ± 0.01 and 1.11 ± 0.02.
In the case of `Cc1ccc(CNc2nc(Cl)nc3c2ncn3C2CCCCO2)o1` (stereo not drawn) [Compound 13, 2-chloro-N-[(5-methylfuran-2-yl)methyl]-9-(tetrahydro-2H-pyran-2-yl)-9H-purin-6-amine], the “Period length ± standard error of the mean (expressed relative to the control) at the indicated concentration” value ([2]; 10 μM) is reported as 10 μM: 1.19 ± 0.01.
In the case of `Cc1ccc(CNc2nc(Cl)nc3c2ncn3C2CCCO2)o1` (stereo not drawn) [Compound 12], the “Period length ± standard error of the mean (expressed relative to control) at the indicated concentration” value ([1]; 10 μM) is reported as 10 μM: 1.16 + 0.01.
In the case of `c1coc(CNc2ncnc3c2ncn3C2CCOC2)c1` (stereo not drawn) [Compound 3, N-(furan-2-ylmethyl)-9-(tetrahydrofuran-3-yl)-9H-purin-6-amine], the “Period length ± standard error of the mean (expressed relative to control) at the indicated concentration” value ([1]; 10 μM) is reported as 10 μM: 1.06 ± 0.01.
